This note sets out measurements from patent US9045445B2, “Glycine transporter-1 inhibitors, methods of making them, and uses thereof” (Albany Molecular Research, Inc., priority 2010, dated 2015).

In general, IC50 refers to the concentration at which inhibition is half-maximal.

Counter-ions that a name gives are not always drawn.

The target in the test is T1, glycine transporter-1 (GlyT-1) (Homo sapiens, UniProt P48067).
T1 construct: JAR cells (ATCC#HTB-144), which endogenously express GlyT-1; host or cells: JAR human choriocarcinoma cells
T1 sequence (P48067 1-706): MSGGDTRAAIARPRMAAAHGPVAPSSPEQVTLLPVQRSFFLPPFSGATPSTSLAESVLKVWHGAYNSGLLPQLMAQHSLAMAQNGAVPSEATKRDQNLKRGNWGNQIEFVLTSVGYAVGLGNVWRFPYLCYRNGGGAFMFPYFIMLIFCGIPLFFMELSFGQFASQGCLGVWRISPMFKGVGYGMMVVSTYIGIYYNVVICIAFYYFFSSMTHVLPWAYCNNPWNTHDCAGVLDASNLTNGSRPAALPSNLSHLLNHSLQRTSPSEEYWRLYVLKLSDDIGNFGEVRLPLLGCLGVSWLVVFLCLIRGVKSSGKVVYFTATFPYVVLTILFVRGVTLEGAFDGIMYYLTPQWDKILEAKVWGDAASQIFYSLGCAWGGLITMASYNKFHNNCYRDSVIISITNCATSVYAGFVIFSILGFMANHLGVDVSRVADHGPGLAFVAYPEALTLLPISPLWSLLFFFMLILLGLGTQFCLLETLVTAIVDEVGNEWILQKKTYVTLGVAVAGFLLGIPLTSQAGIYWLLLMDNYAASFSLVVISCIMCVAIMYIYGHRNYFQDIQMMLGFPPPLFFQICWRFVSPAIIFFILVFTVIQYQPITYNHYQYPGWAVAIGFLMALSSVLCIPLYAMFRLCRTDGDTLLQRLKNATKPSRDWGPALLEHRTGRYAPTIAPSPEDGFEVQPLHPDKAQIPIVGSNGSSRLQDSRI
The test is described as follows: [14C]glycine uptake assay in JAR cells endogenously expressing GlyT-1 (scintillation proximity). The test is classed as cell-based. Particulars: JAR cells, [14C]glycine 5 μM, 3 hour incubation; read-out: GlyT-1 IC50. The essentials:
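Human choriocarcinoma JAR cells (endogenous GlyT-1) attached overnight, then pre-incubated 10 min at room temperature with compound in pH 7.4 Hepes uptake buffer containing 5 mM alanine and 0.75% DMSO. Uptake of 5 μM [14C]glycine over 3 h at 37 °C read by scintillation proximity; IC50 from four-parameter fit of nine-point curves.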
(In general: SPA uses beads or plates that emit light when radiolabelled molecules are held near them.)
With `CCCS(=O)(=O)N1CCN(C2(CNC(=O)c3ccc(F)cc3C)CCCCC2)CC1` [compound 10, 4-Fluoro-2-methyl-N-((1-(4-(propylsulfonyl)piperazin-1-yl)cyclohexyl)methyl) benzamide Hydrochloride], the IC50 was determined as 28 nM.

In the case of `CCCS(=O)(=O)N1CCN(C2(CNC(=O)c3cccc(C)c3)CCCCC2)CC1` [compound 37, 3-Methyl-N-((1-(4-(propylsulfonyl)piperazin-1-yl)cyclohexyl)methyl) benzamide Hydrochloride], the IC50 worked out at 1140 nM.

As for `CCCS(=O)(=O)N1CCN(C2(CNC(=O)c3c(F)cccc3C(F)(F)F)CCC(F)(F)CC2)CC1` [compound 149, N-((4,4-Difluoro-1-(4-(propylsulfonyl)piperazin-1-yl)cyclohexyl)methyl)-2-fluoro-6-(trifluoromethyl)benzamide Hydrochloride], the 50% inhibitory concentration (IC50) worked out at 69 nM.

On to `Cn1cc(S(=O)(=O)N2CCN(C3(CNC(=O)c4ccc(C(F)(F)F)cc4C(F)(F)F)CCOCC3)CC2)nn1` [compound 276, N-((4-(4-(1-Methyl-1H-1,2,3-triazol-4-ylsulfonyl)piperazin-1-yl)tetrahydro-2H-pyran-4-yl)methyl)-2,4-bis(trifluoromethyl) benzamide Hydrochloride], for which the concentration for half-maximal inhibition (IC50) was 7 nM.

With `O=C(NCC1(N2CCN(S(=O)(=O)N3CCC(F)(F)C3)CC2)CCC(F)(F)CC1)c1ccc(C(F)(F)F)cc1Cl` [compound 272, 2-Chloro-N-((1-(4-(3,3-difluoropyrrolidin-1-ylsulfonyl)piperazin-1-yl)-4,4-difluorocyclohexyl)methyl)-4-(trifluoromethyl) benzamide Hydrochloride], the IC50 is 1100 nM.

In the case of `Cn1cnc(S(=O)(=O)N2CCN(C3(CNC(=O)c4c(F)cccc4Cl)CCC(F)(F)CC3)CC2)c1` [compound 180, 2-Chloro-N-((4,4-difluoro-1-(4-(1-methyl-1H-imidazol-4-ylsulfonyl)piperazin-1-yl)cyclohexyl)methyl)-6-fluorobenzamide Hydrochloride], the half-maximal inhibitory concentration (IC50) worked out at 8 nM.

With `CCS(=O)(=O)N1CCN(C2(CNC(=O)c3c(C)cc(C)cc3C)CCC(F)(F)CC2)CC1` [compound 217, N-((1-(4-(Ethylsulfonyl)piperazin-1-yl)-4,4-difluorocyclohexyl)methyl)-2,4,6-trimethylbenzamide Hydrochloride], the 50% inhibitory concentration (IC50) was 216 nM.

`CCCS(=O)(=O)N1CCN(C2(CNC(=O)c3c(N)cccc3Cl)CCC2)CC1` [compound 78, 2-Amino-6-chloro-N-((1-(4-(propylsulfonyl)piperazin-1-yl)cyclobutyl)methyl) benzamide Hydrochloride]: the IC50 was found to be 2440 nM.

For `CCCS(=O)(=O)N1CCN(C2(CNC(=O)c3c(Cl)ccc(C(F)(F)F)c3Cl)CCC(F)(F)CC2)CC1` [compound 265, 2,6-Dichloro-N-((4,4-difluoro-1-(4-(propylsulfonyl)piperazin-1-yl)cyclohexyl)methyl)-3-(trifluoromethyl) benzamide Hydrochloride], the IC50 was 228 nM.

As to `CCCS(=O)(=O)N1CCN(C2(CNC(=O)c3c(F)ccc(C(F)(F)F)c3F)CCC(F)(F)CC2)CC1` [compound 262, N-((4,4-Difluoro-1-(4-(propylsulfonyl)piperazin-1-yl)cyclohexyl)methyl)-2,6-difluoro-3-(trifluoromethyl)benzamide Hydrochloride], the IC50 came to 223 nM.

As to `CCCS(=O)(=O)N1CCN(C2(CNC(=O)c3c(Cl)cccc3OC(F)(F)F)CCC(F)(F)CC2)CC1` [compound 159, 2-Chloro-N-((4,4-difluoro-1-(4-(propylsulfonyl)piperazin-1-yl)cyclohexyl)methyl)-6-(trifluoromethoxy) benzamide Hydrochloride], the IC50 was determined as 29 nM.

On to `CCCS(=O)(=O)N1CCN(C2(CNC(=O)c3ccc(F)cc3F)CCC(F)(F)CC2)CC1` [compound 140, N-((4,4-Difluoro-1-(4-(propylsulfonyl)piperazin-1-yl)cyclohexyl)methyl)-2,4-difluorobenzamide Hydrochloride], for which the concentration for half-maximal inhibition (IC50) came out at 195 nM.
